Data from ChEMBL document CHEMBL4842344, “Design, synthesis and biological activity evaluation of novel scopoletin-NO donor derivatives against MCF-7 human breast cancer in vitro and in vivo” (Eur J Med Chem, 2021).
Calls of active or inactive are those of the source. No cut-off for these calls is given here.

Tests used:
MCF7 [1] = experiment: Antiproliferative activity against human MCF7 cells assessed as inhibition of cell growth measured after 48 hrs by MTT assay; format: functional, cell-based; settings: MCF7, 48 h
MCF-10A = experiment: Cytotoxicity against human MCF-10A cells assessed as reduction in cell viability measured after 48 hrs by MTT assay; format: cell-based
MDA-MB-231 = experiment: Antiproliferative activity against human MDA-MB-231 cells assessed as inhibition of cell growth measured after 48 hrs by MTT assay; format: functional, cell-based; settings: MDA-MB-231, 48 h
MCF7 [2] = experiment: Inhibition of cell proliferation in human MCF7 cells assessed as increase in intracellular NO production at 25 uM measured after 2.5 hrs by nitric oxide assay; format: functional, cell-based

Compound	IC50 (MCF7 [1]) [nM]	IC50 (MCF-10A) [nM]	IC50 (MDA-MB-231) [nM]	Activity (MCF7 [2])
COc1cc2ccc(=O)oc2cc1O [SCOPOLETIN]	> 25000	> 25000	> 25000	
COc1ccc(CNC(=O)c2cc3cc(OC)c(OCCCOc4no[n+]([O-])c4S(=O)(=O)c4ccccc4)cc3oc2=O)cc1	560	5950	780	Active
COc1cc2cc(C(=O)NCCCc3ccc(F)cc3)c(=O)oc2cc1OCCCOc1no[n+]([O-])c1S(=O)(=O)c1ccccc1	600	8920	690	Active
COc1cc2cc(C(=O)Nc3ccc(F)cc3)c(=O)oc2cc1OCCCOc1no[n+]([O-])c1S(=O)(=O)c1ccccc1	860	7210	1200	Active
COc1cc2cc(C(=O)NCc3ccccc3)c(=O)oc2cc1OCCCOc1no[n+]([O-])c1S(=O)(=O)c1ccccc1	740	7030	1060	Active
COc1ccc(NC(=O)c2cc3cc(OC)c(OCCCOc4no[n+]([O-])c4S(=O)(=O)c4ccccc4)cc3oc2=O)cc1	410	5470	730	Active
COc1ccc(CCNC(=O)c2cc3cc(OC)c(OCCCOc4no[n+]([O-])c4S(=O)(=O)c4ccccc4)cc3oc2=O)cc1	750	5370	1540	Active
